Results on three molecules are retold here after patent US5242684A, “Antimicrobial, low toxicity, non-irritating composition comprising a blend of bis-quaternary ammonium compounds coprecipitated with a copolymer of vinylpyrrolidone and an acrylamido or vinyl quaternary ammonium monomer” (ISP Investments Inc., priority 1991, dated 1993).

One data set relates to E.Coli. The experiment in a line: Minimum Inhibitory Concentration (MIC) against E.Coli. The format is cell-based. Particulars: Gram negative, coprecipitates at 50:50 wt. ratio with GAFQUAT HS-100, unit assumed. The source says: The antimicrobial activity of the products herein are represented by their Minimum Inhibitory Concentration (MIC) against E.Coli, a Gram negative microorganism. Their effect on skin is indicated by an Irritation Index. These properties are presented in the Table below for the individual compounds in blend D and the invention composition of several D, H and L blend compositions coprecipitated in a 50:50 wt. ratio with GAFQUAT® HS-100.

The next data set can be described thus: LD50 toxicity (on rats). Particulars: rat, in vivo.

For `CCCCCCCCCCCC[N+](C)(C)CCOCCOCC[N+](C)(C)CCCCCCCCCCCC` [A compound in D blend], the MIC in the data set on E.Coli came to 100 µg/mL. The LD50 in “LD50 toxicity (on rats)” amounted to 300 mg/kg.

`CCCCCCCCCCCCCC[N+](C)(C)CCOCCOCC[N+](C)(C)CCCCCCCCCCCC` [B compound in D blend]: the MIC in the data set with E.Coli stood at 50 µg/mL. The same molecule came in with an LD50 in “LD50 toxicity (on rats)” of 700 mg/kg.

Turning to `CCCCCCCCCCCCCC[N+](C)(C)CCOCCOCC[N+](C)(C)CCCCCCCCCCCCCC` [C compound in D blend], the MIC in the data set with E.Coli worked out at 125 µg/mL. Also, the median lethal dose (LD50) in the data set “LD50 toxicity (on rats)” turned out to be 950 mg/kg.
